US20020051978A1, “Methods and compositions for the identification, assessment, prevention and therapy of human cancers” (priority 2000, published 2002)
“And” between values parts separate entries of the source, which are not always exact repeats. Equal values may be shown once. Read-outs that look alike come from different tables or passages of the source.

Tests used:
[1] = tested on: 60 cancer cell lines (NCI 60 cancer cell line series); assay: NCI-DTP in vitro cancer screen, sulforhodamine B (SRB) growth inhibition, 48 hour exposure; format: cell-based, human; set-up: key to sensitivity class Ovarian OVCAR-8 CL6005 / sensitivity class Ovarian SK-OV-3 CL6011 / sensitivity class Prostate DU-145 CL11003 / sensitivity class NSCLC NCI-H522 CL1003 / sensitivity class Ovarian IGROV1 CL6010 / sensitivity class Ovarian OVCAR-4 CL6002 / sensitivity class Prostate PC-3(I) CL11001 / sensitivity class Renal A498 CL9013 / sensitivity class Renal SN12C CL9008: sensitivity class: 1 = Low, 2 = Medium, 3 = High
Procedure: Cancer Cell Line Preparation. Sixty cancer cell lines were obtained from the National Cancer Institute Developmental Therapeutics Program (NCI-DTP). Procedures for growing cells and testing compounds have been described previously (Scudiero et al., Cancer Res. 1988, 48:4827-4833; Stinson et al., Anticancer Res.; Myers et al., Electrophoresis 1997, 18:647-653). Cells are plated on day 0 at a density individualized for each cell line so that they will generally be sub-confluent at the end of the assay period. On day 1, a compound is added in the format for a duplicate-well, 5-dose, ten-fold interval dose response study.
No-drug, no-cell and no-growth controls are included. On day 3 the cells are processed for staining with sulforhodamine B (SRB), which reflects the amount of cell mass present at the end of a 48 hour exposure to the test agent. From dose response curves based on the SRB data, various parameters can be determined. The one used in the present study is the G15o, defined as the concentration of compound required to inhibit growth of the cell line by 50%. More precisely, the quantity used in the calculation to be described is the potency measure -log{GI50}.
Activity database (A). Table IA, consisting of the growth inhibition (GI5o) values for the 60 cell lines and 24 compounds, was created from the NCI-DTP in vitro cancer screen database. This subset of compounds was selected from the larger 23,000 compound database available from the DTP. The compounds were selected on the basis of their known mechanism of action and chemical structure. The average potency—log{GI50} was extracted from the comma-delimited text files available through the Web at http://www.nci.nih.gov/intra/lmp/jnwbio.htmrl. Subsequently, these log{GI5o} values were inspected manually and classified as indicating either Low, Medium or High sensitivity to each compound.

[2] = tested on: 60 cancer cell lines (NCI 60 cancer cell line series); conditions: cited from earlier work

With `CC[C@@]1(O)C(=O)OCc2c1cc1n(c2=O)Cc2cc3c(CN(C)C)c(O)ccc3nc2-1` [Topotecan] the “classification of cell line as Low(1), Medium(2) or High(3) sensitivity to compound” value (“classification of cell line” for short) ([1]; Breast HS-578T CL5006) was 1, the “classification of cell line” value ([1]; Breast MDA-MB-231 CL5005) was 1 and the “classification of cell line” value ([1]; Breast MDA-MB-435 (CL5011)) was 2. For the same compound, the “classification of cell line” value ([1]; Breast MDA-N CL5012) was 2, the “classification of cell line” value ([1]; Breast T-47D (CL5014)) was 3 and the “classification of cell line” value ([1]; CNS SF-268 CL12014) was 3. The “classification of cell line” value ([1]; CNS SF-539 CL12016) was 3, the “classification of cell line” value ([1]; CNS SNB-19 (CL12002)) was 2 and the “classification of cell line” value ([1]; CNS SNB-75(I) CL12005) was 2. For the same compound, the “classification of cell line” value ([1]; Colon COLO-250 CL4010) was 1, the “classification of cell line” value ([1]; Colon HCT-15 CL4015) was 1 and the “classification of cell line” value ([1]; Colon HCT-116 (CL4003)) was 2. The “classification of cell line” value ([1]; Colon HT29(I) CL4001) was 2, the “classification of cell line” value ([1]; Colon SW-620 (CL4009)) was 2 and the “classification of cell line” value ([1]; Leukemia CCRF-CEM(I) (CL7003)) was 3. For the same compound, the “classification of cell line” value ([1]; Leukemia K562(I) CL7005) was 2, the “classification of cell line” value ([1]; Leukemia MOLT-4 (CL7006)) was 3 and the “classification of cell line” value ([1]; Leukemia RPMI-8226(I) (CL7010)) was 2. For the same compound, the “classification of cell line” value ([1]; Melanoma LOX IMVI CL10001) was 3, the “classification of cell line” value ([1]; Melanoma MALME-3M CL10002) was 2 and the “classification of cell line” value ([1]; Melanoma SK-MEL-2 (CL10005)) was 1. For the same compound, the “classification of cell line” value ([1]; Melanoma SK-MEL-5 (CL10007)) was 2, the “classification of cell line” value ([1]; Melanoma SK-MEL-28 (CL10008)) was 1 and the “classification of cell line” value ([1]; Melanoma UACC-257 (CL10021)) was 2. The “classification of cell line” value ([1]; NSCLC A549/ATCC (CL1004)) was 2, the “classification of cell line” value ([1]; NSCLC HOP-62 (CL1026)) was 3 and the “classification of cell line” value ([1]; NSCLC HOP-92 (CL1029)) was 2. For the same compound, the “classification of cell line” value ([1]; NSCLC NCI-H226 CL1013) was 2, the “sensitivity class NSCLC NCI-H23(I) CL1001” value ([1]; cell line NSCLC NCI-H23(I), CL1001) was 2 and the “sensitivity class NSCLC NCI-H460 CL1021” value ([1]; cell line NSCLC NCI-H460, CL1021) was 3. For the same compound, the “sensitivity class NSCLC NCI-H522 CL1003” value ([1]; cell line NSCLC NCI-H522, CL1003) was 2, the “sensitivity class Ovarian OVCAR-4 CL6002” value ([1]; cell line Ovarian OVCAR-4, CL6002) was 1 and the “sensitivity class Ovarian OVCAR-5 CL6003” value ([1]; cell line Ovarian OVCAR-5, CL6003) was 2. The “sensitivity class Ovarian OVCAR-8 CL6005” value ([1]; cell line Ovarian OVCAR-8, CL6005) was 2, the “sensitivity class Ovarian SK-OV-3 CL6011” value ([1]; cell line Ovarian SK-OV-3, CL6011) was 2 and the “sensitivity class Prostate DU-145 CL11003” value ([1]; cell line Prostate DU-145, CL11003) was 3. For the same compound, the “sensitivity class Prostate PC-3(I) CL11001” value ([1]; cell line Prostate PC-3(I), CL11001) was 2, the “sensitivity class Renal 786-O CL9018” value ([1]; cell line Renal 786-O, CL9018) was 3 and the “sensitivity class Renal A498 CL9013” value ([1]; cell line Renal A498, CL9013) was 2. The “sensitivity class Renal ACHN CL9023” value ([1]; cell line Renal ACHN, CL9023) was 3, the “sensitivity class Renal CAKI-1 CL9015” value ([1]; cell line Renal CAKI-1, CL9015) was 3 and the “sensitivity class Renal RXF-393 CL9016” value ([1]; cell line Renal RXF-393, CL9016) was 2. The “sensitivity class Renal TK10 CL9024” value ([1]; cell line Renal TK10, CL9024) was 1, the “sensitivity class Renal UO-31 CL9004” value ([1]; cell line Renal UO-31, CL9004) was 2 and the “-Log (GI50)” value ([2]; Breast MCF7(I) (CL5001)) was 8.0 and 7.8. The “-Log (GI50)” value ([2]; Breast T-47D (CL5014)) was 8.0 and 7.7, the “-Log (GI50)” value ([2]; CNS SF-268 CL12014) was 7.7 and the “-Log (GI50)” value ([2]; CNS SF-539 CL12016) was 7.7 and 7.8. The “-Log (GI50)” value ([2]; CNS SNB-19 (CL12002)) was 7.5 and 7.6, the “-Log (GI50)” value ([2]; CNS U251(I) CL12009) was 7.5 and 7.8 and the “-Log (GI50)” value ([2]; Colon HCT-15 CL4015) was 6.2 and 6.3. The “-Log (GI50)” value ([2]; Colon KM12 (CL4017)) was 6.5 and 6.4, the “-Log (GI50)” value ([2]; Leukemia CCRF-CEM(I) (CL7003)) was 7.9 and the “-Log (GI50)” value ([2]; Leukemia MOLT-4 (CL7006)) was 7.9. The “-Log (GI50)” value ([2]; Melanoma LOX IMVI CL10001) was 7.7 and 7.8, the “-Log (GI50)” value ([2]; Melanoma M14 (CL10014)) was 7.5 and 7.8 and the “-Log (GI50)” value ([2]; Melanoma SK-MEL-2 (CL10005)) was 5.7 and 6.0. For the same compound, the “-Log (GI50)” value ([2]; Melanoma SK-MEL-5 (CL10007)) was 7.2 and 7.5, the “-Log (GI50)” value ([2]; Melanoma UACC-62 (CL10020)) was 7.8 and 7.7 and the “-Log (GI50)” value ([2]; NCSLC NCI-H522 CL1003) was 7.3 and 7.5. The “-Log (GI50)” value ([2]; NSCLC A549/ATCC (CL1004)) was 7.0 and 7.3, the “-Log (GI50)” value ([2]; NSCLC HOP-62 (CL1026)) was 7.9 and the “-Log (GI50)” value ([2]; NSCLC NCI-H23(I) CL1001) was 7.4. For the same compound, the “-Log (GI50)” value ([2]; NSCLC NCI-H460 CL1021) was 7.7, the “-Log (GI50)” value ([2]; Ovarian IGROV1 CL6010) was 6.3 and 6.4 and the “-Log (GI50)” value ([2]; Ovarian SK-OV-3 CL6011) was 7.1 and 7.2. For the same compound, the “-Log (GI50)” value ([2]; Prostate DU-145 CL11003) was 8.0 and 7.8, the “-Log (GI50)” value ([2]; Renal A498 CL9013) was 6.7 and 7.0 and the “-Log (GI50)” value ([2]; Renal ACHN CL9023) was 7.7 and 7.8. The “-Log (GI50)” value ([2]; Renal CAKI-1 CL9015) was 7.9 and 7.8, the “-Log (GI50)” value ([2]; Renal SN12C CL9008) was 7.6 and 7.5 and the “-Log (GI50)” value ([2]; Renal TK10 CL9024) was 5.1 and 5.3. The “-Log (GI50)” value ([2]; Renal UO-31 CL9004) was 7.0 and 7.2.
